One block for each compound: values may come before it.
Test: solvent given as SMILES

absorption maximum (in C1CCOC1): 587 nm
Compound: CC1=[N+]2C(=C(c3ccc(C(=C(c4ccccc4)c4ccccc4)c4ccccc4)cc3)c3ccc(/C=C/c4ccc(C(=C(c5ccccc5)c5ccccc5)c5ccccc5)cc4)n3[B-]2(F)F)C=C1

absorption maximum (in CC#N): 555 nm | absorption maximum (in CCO): 543 nm | absorption maximum (in CN(C)C=O): 562 nm | absorption maximum (in O): 558 nm
Compound: CCCCOC(=O)c1ccccc1-c1c2ccc(=[N+](CC)CC)cc-2oc2cc(N(CC)CC)ccc12

Compound: COC(=O)C(Cc1ccc2oc(-c3ccc4c(c3)c3ccccc3n4-c3ccccc3)nc2c1)NC(=O)OC(C)(C)C (stereo not given)
absorption maximum (in C1CCCCC1): 326 nm | absorption maximum (in C1CCOC1): 327.29 nm | absorption maximum (in C1COCCO1): 327.3 nm | absorption maximum (in CC1CCCO1): 326.9 nm | absorption maximum (in CC1COC(=O)O1): 326 nm | absorption maximum (in CC#N): 325.9 nm | absorption maximum (in CC(C)=O): 325.9 nm | absorption maximum (in CC(C)CC(C)(C)C): 325.1 nm | absorption maximum (in CC(C)CO): 335.8 nm | absorption maximum (in CC(C)O): 327 nm | absorption maximum (in CC(C)OC(C)C): 327.4 nm | absorption maximum (in CC(O)CO): 338 nm | absorption maximum (in CCC(C)CC): 324.4 nm | absorption maximum (in CCCCC): 324.5 nm | absorption maximum (in CCCCCC): 325.3 nm | absorption maximum (in CCCCCCCCC): 326 nm | absorption maximum (in CCCCCCCCCC): 326.2 nm | absorption maximum (in CCCCCCCO): 328.3 nm | absorption maximum (in CCCCCCO): 328.2 nm | absorption maximum (in CCCCCO): 327.3 nm | absorption maximum (in CCCCO): 327.4 nm | absorption maximum (in CCO): 334.69 nm | absorption maximum (in CCOC(C)=O): 325.6 nm | absorption maximum (in CCOCC): 325.3 nm | absorption maximum (in CN(C)C=O): 327.9 nm | absorption maximum (in CO): 334.2 nm | absorption maximum (in COCCOC): 326.8 nm | absorption maximum (in CS(C)=O): 332.6 nm | absorption maximum (in Cc1ccccc1): 328.9 nm | absorption maximum (in Cc1ccccc1C): 329.1 nm | absorption maximum (in ClC(Cl)Cl): 329.7 nm | absorption maximum (in ClCCl): 328.8 nm | absorption maximum (in NC=O): 327.7 nm | absorption maximum (in OC1CCCCC1): 328.6 nm | absorption maximum (in OCCO): 338.9 nm | absorption maximum (in c1ccccc1): 328.8 nm

absorption maximum (in CCO): 362 nm
Compound: Cc1nc2cc3c4c(cccc4c2o1)C(=O)OC3=O

absorption maximum (in CCO): 474 nm | absorption maximum (in CO): 471 nm | absorption maximum (in O): 475 nm | absorption maximum (in OCC(F)(F)F): 473 nm | absorption maximum (in OCCO): 478 nm
Compound: NC(=O)CC[C@H](/[NH+]=C\C=C1\C=C(C(=O)O)N[C@H](C(=O)O)C1)C(=O)O

Compound: N#Cc1cccc(C#N)c1-c1ccc(N2c3ccccc3C3(c4ccccc42)c2ccccc2N(c2ccc(-c4c(C#N)cccc4C#N)cc2)c2ccccc23)cc1
absorption maximum (in Cc1ccccc1): 371.03 nm

absorption maximum (in CC#N): 420 nm
Compound: Oc1ccc2ccccc2c1/C=N/c1cc2nc3ccccc3nc2cc1/N=C/c1c(O)ccc2ccccc12

Compound: COc1ccc2c3ccc(OC)cc3n(-c3ccc(-c4nnc(-c5c(C(C)C)cc(C(C)C)cc5C(C)C)o4)cc3)c2c1
absorption maximum (in Cc1ccccc1): 319 nm

Compound: CN(C)c1ccc2cc(C3=[O+][B-](F)(F)OC(c4ccccc4)=C3)ccc2c1
absorption maximum (in C1CCOC1): 492 nm | absorption maximum (in CC#N): 503 nm | absorption maximum (in CC(C)=O): 498 nm | absorption maximum (in CS(C)=O): 520 nm | absorption maximum (in Cc1ccccc1): 489 nm | absorption maximum (in ClC(Cl)Cl): 500 nm | absorption maximum (in ClCCl): 504 nm

Compound: CC(C)(C)c1ccc2c(c1)c1cc(C(C)(C)C)ccc1n2-c1ccc(-n2c3ccc(C(C)(C)C)cc3c3cc(C(C)(C)C)ccc32)c(C(=O)c2ccncc2)c1
absorption maximum (in Cc1ccccc1): 418 nm

absorption maximum (in C1CCOC1): 313 nm
Compound: Cc1sc(-c2ccc(-c3nc(-c4ccccc4)c(-c4ccccc4)[nH]3)cc2)c(C)c1C1=C(c2c(C)n(C)c3ccccc23)C(F)(F)C(F)(F)C1(F)F

absorption maximum (in ClC(Cl)Cl): 500 nm
Compound: CCCCCCCCc1ccc(-c2c3cc(-c4cc(CCCCCCCC)c(-c5ccc(-c6sc(/C=C7\SC(SCC)=NC7=O)cc6CCCCCCCC)s5)s4)sc3c(-c3ccc(CCCCCCCC)s3)c3cc(-c4cc(CCCCCCCC)c(-c5ccc(-c6sc(/C=C7\SC(SCC)=NC7=O)cc6CCCCCCCC)s5)s4)sc23)s1

absorption maximum (in C1CCOC1): 416 nm
Compound: CCN(CC)c1ccc(-c2nc3c4ccccc4n(C)c3nc2-c2ccc(B(c3c(C)cc(C)cc3C)c3c(C)cc(C)cc3C)cc2)cc1

Compound: COC1=C/C(=C\C=C2C=CN(Cc3ccc(Br)cc3)C=C2)C=CC1=O
absorption maximum (in CC#N): 617 nm | absorption maximum (in CC(C)=O): 624 nm | absorption maximum (in CC(C)CO): 576 nm | absorption maximum (in CC(C)O): 585 nm | absorption maximum (in CCC#N): 620 nm | absorption maximum (in CCCCCCO): 584 nm | absorption maximum (in CCCCCO): 588 nm | absorption maximum (in CCCCO): 576 nm | absorption maximum (in CCCO): 577 nm | absorption maximum (in CCO): 568 nm | absorption maximum (in CN(C)C=O): 621 nm | absorption maximum (in CN(C)P(=O)(N(C)C)N(C)C): 629 nm | absorption maximum (in CO): 537 nm | absorption maximum (in CS(C)=O): 619 nm

Compound: CN(C)c1ccc(/C=C/C=C2\CCCC2=O)cc1
absorption maximum (in CC#N): 409 nm | absorption maximum (in CC(C)=O): 416 nm | absorption maximum (in CC(C)O): 420 nm | absorption maximum (in CCCCCC): 394 nm | absorption maximum (in CCCCO): 425 nm | absorption maximum (in CCCO): 422 nm | absorption maximum (in CCO): 422 nm | absorption maximum (in CCOC(C)=O): 408 nm | absorption maximum (in CCOCC): 399 nm | absorption maximum (in CN(C)C=O): 408 nm | absorption maximum (in CO): 420 nm | absorption maximum (in CS(C)=O): 416 nm | absorption maximum (in Cc1ccccc1): 409 nm | absorption maximum (in ClC(Cl)(Cl)Cl): 407 nm | absorption maximum (in ClC(Cl)Cl): 404 nm | absorption maximum (in ClCCl): 420 nm | absorption maximum (in c1ccccc1): 411 nm | absorption maximum (in c1ccncc1): 419 nm

Compound: COCCC1=Cc2nc1ccc1[nH]c(cc1CCOC)c1nc(c(NC(=O)CCCC(=O)O)cc3[nH]c2cc3CCOC)C(CCOC)=C1
absorption maximum (in Cc1ccccc1): 645 nm

absorption maximum (in ClCCl): 550 nm
Compound: COc1ccc(-c2c3cc4ccccc4cc3c(-c3ccc(OC)cc3)c3cc4sc(C)cc4cc23)cc1

absorption maximum (in CCO): 648 nm | absorption maximum (in CO): 646 nm | absorption maximum (in CS(C)=O): 656 nm | absorption maximum (in O): 641 nm
Compound: CN1/C(=C/C=C(/C=C/c2sc3ccccc3[n+]2C)c2ccc(F)cc2)Sc2ccccc21

absorption maximum (in C1COCCO1): 460 nm | absorption maximum (in CC(C)O): 479 nm | absorption maximum (in CCCCCCCCO): 485 nm | absorption maximum (in CCCCO): 480 nm | absorption maximum (in CCCO): 482 nm | absorption maximum (in CCO): 484 nm | absorption maximum (in CO): 486 nm | absorption maximum (in CS(C)=O): 479 nm | absorption maximum (in ClC(Cl)Cl): 489 nm | absorption maximum (in ClCCl): 489 nm
Compound: CN(C)c1ccc(/C=C/c2cc[n+](CCCOCC(COCCC[n+]3ccc(/C=C/c4ccc(N(C)C)cc4)cc3)(COCCC[n+]3ccc(/C=C/c4ccc(N(C)C)cc4)cc3)COCCC[n+]3ccc(/C=C/c4ccc(N(C)C)cc4)cc3)cc2)cc1

Compound: c1ccc(-c2nc3c(ccc4[nH]ccc43)o2)cc1
absorption maximum (in C1CCCCC1): 331 nm | absorption maximum (in C1COCCO1): 333 nm | absorption maximum (in CC#N): 320 nm | absorption maximum (in CO): 325 nm | absorption maximum (in Cc1ccccc1): 322 nm | absorption maximum (in O): 321 nm

Compound: N#Cc1cc(N2c3ccccc3Sc3ccccc32)c(N2c3ccccc3Sc3ccccc32)cc1C#N
absorption maximum (in c1ccc2c(c1)c1ccccc1n2-c1ccc(-c2ccc(-n3c4ccccc4c4ccccc43)cc2)cc1): 551 nm

absorption maximum (in CC#N): 336 nm
Compound: CCOC(=O)c1nn(-c2ccc(OC)cc2)nc1N1CCCC1

absorption maximum (in CO): 635 nm | absorption maximum (in ClC(Cl)Cl): 649 nm | absorption maximum (in ClCCl): 650 nm
Compound: CC[n+]1c(C=C2C(=O)C(C=C3N(C)c4ccccc4C3(C)C)=C2[O-])sc2ccccc21

Compound: CCOC(=O)c1cc2ccc3ccccc3c2c(C#N)c1N
absorption maximum (in Cc1ccccc1): 435 nm

Compound: CC1(C)c2ccccc2N(c2ccc(-c3nc(C#N)c(C#N)nc3-c3ccc(N4c5ccccc5C(C)(C)c5ccccc54)cc3)cc2)c2ccccc21
absorption maximum (in Cc1ccccc1): 436 nm

absorption maximum (in ClC(Cl)Cl): 671 nm
Compound: COc1ccccc1-c1cc2c(o1)=CC1=Cc3cc4oc(-c5ccccc5OC)cc4n3[B-](F)(F)[N+]=21

absorption maximum (in ClCCl): 345 nm
Compound: N#Cc1ccc(C#Cc2ncc(-c3ccccc3)o2)cc1

Compound: CC(C)[Si]1(C(C)C)c2cc(C#N)ccc2-c2ccc(N(C)C)cc21
absorption maximum (in C1CCCCC1): 357 nm | absorption maximum (in CC#N): 360 nm | absorption maximum (in CCO): 360 nm | absorption maximum (in CCOCC): 358 nm | absorption maximum (in CS(C)=O): 375 nm | absorption maximum (in ClCCl): 368 nm | absorption maximum (in c1ccccc1): 360 nm

absorption maximum (in ClCCl): 467 nm
Compound: COc1ccc(/C=C/C2=C3CCc4ccccc4C3=[O+][B-](F)(F)O2)cc1

absorption maximum (in C1CCCCC1): 500.5 nm | absorption maximum (in CC#N): 496.5 nm | absorption maximum (in CCO): 497.5 nm | absorption maximum (in CCOC(C)=O): 497 nm | absorption maximum (in CO): 496 nm | absorption maximum (in OCC(F)(F)F): 493 nm
Compound: Cc1ccc(C2=C3C=CC=[N+]3[B-](F)(F)n3cccc32)cc1

absorption maximum (in C1CCOC1): 423 nm | absorption maximum (in CC#N): 425 nm | absorption maximum (in CS(C)=O): 436 nm | absorption maximum (in ClCCl): 427 nm
Compound: C(=C\c1cnc2ccccc2n1)/c1ccc(N(c2ccccc2)c2ccccc2)cc1

absorption maximum (in CS(C)=O): 566 nm
Compound: CCCCN1/C(=C/C=C/C2=[N+](C)c3ccccc3C2(C)C)C(C)(C)c2cc(OC)ccc21

Compound: CCN(CC)c1ccc2cc(-c3csc(NC(C)=O)c3C#N)c(=O)oc2c1
absorption maximum (in CO): 404 nm | absorption maximum (in CS(C)=O): 394 nm | absorption maximum (in Cc1ccccc1): 402 nm

absorption maximum (in ClCCl): 615 nm
Compound: CC(C)[Si](C#Cc1c2cc3ccccc3cc2c(C#C[Si](C(C)C)(C(C)C)C(C)C)c2nc3c4ccccc4c(=O)c4ccccc4c3nc12)(C(C)C)C(C)C

absorption maximum (in C1CCOC1): 353 nm
Compound: N#Cc1c(N2CCCC2)cc(-c2ccccc2)c2c1-c1ccccc1C2

Compound: CN(C)c1ccc(/C=C/C(=O)c2ccc(Cl)cc2)cc1
absorption maximum (in C1CCOC1): 413 nm | absorption maximum (in CC#N): 419 nm | absorption maximum (in CC(=O)O): 430 nm | absorption maximum (in CC(C)=O): 418 nm | absorption maximum (in CCO): 429 nm | absorption maximum (in CN(C)C=O): 427 nm | absorption maximum (in CO): 428 nm | absorption maximum (in Cc1ccccc1): 416 nm | absorption maximum (in ClC(Cl)Cl): 426 nm | absorption maximum (in c1ccccc1): 420 nm

absorption maximum (in ClCCl): 501 nm
Compound: CCC1=C(CC)c2cccc3c2c(cc2nc4ccccc4nc23)O1

absorption maximum (in C1COCCO1): 431 nm
Compound: COc1ccc(C2=C/C(=C\c3ccccc3)C(=O)N2)cc1OC
